# From US11873287B2, “Piperidine-2,6-dione derivatives and ulcerative colitis treating” (TIANJIN HEMAY PHARMACEUTICAL SCI-TECH CO., LTD, priority 2016, dated 2024)
# Key:
# [1] = tested on: DSS-Induced inflammatory Bowel Disease Models in Mice; assay: DSS-induced inflammatory bowel disease model in mice (Biological Example 3, 1.0-1.5% DSS); assay type: in vivo, C57BL/6 mice; conditions: 30 mg/Kg i.g. Q.D; for Average Length of Colon (Mean ± SD) / Inhibitory Rate of Colonic Reduction: DSS 1.0% days 0-4, 1.5% days 5-9
# Description: (§1) 40 healthy female C57BL/6 mice having weight of 16-19 g were randomly divided into 4 groups in accordance with weight. There were 10 mice in each group (see Table 6 below). The first day of the experiment was recorded as Day 0. The administration regimen and induction regimen were detailed in Table 6. The change in weight of experimental animals was recorded every day. […] Samples of animal colonic tissues were obtained to measure the length. One-way ANOVA analysis of mice weights was performed by SPSS22. Statistical analyses between groups were performed. Mann-Whitney U non-parametric test was performed on the length of colon.
# (§2) Calculation Formula of Inhibitory Rate of Colonic Reduction: (Length of Colon in Administration Group−Length of Colon in Model Group)/(Length of Colon in Blank Group−Length of Colon in Model Group)
# [2] = tested on: ICR mice; assay: Acute toxicity experiment of single oral administration in mice; assay type: in vivo; conditions: 1000 mg/Kg single oral dose
# Description: The mice were fasted one day before the experiment. On the day of the experiment, 6 mice (ICR mice, body weight of 19-21 g, three females and three males) were selected in each experiment group. First of all, one female and one male were selected to orally give 1000 mg/Kg, and observed for 5-10 minutes. If there were no obvious side effects, the remaining 4 animals were orally given the same dose, and observed for 10-15 minutes. If no animal died, the animals were placed in a box to balancedly feed for 7 days. The state was observed and the body weight was recorded daily.
# Observation Indexes within 0-15 Minutes After Administration
# Activity: restlessness, hyperactivity
# Nervous system response: tremor, spasm, convulsion, ataxia, posture abnormality, etc.
# Autonomic nerve: exophthalmos, salivation, tears, urination (hematuria), diarrhea, piloerection, breathing, etc.
# Observation Indexes Over 7 Days
# State of Animal: lethargy, hyperactivity, excitement, hair loss, diarrhea, abnormal behavior, death, etc.
# [3] = tested on: DSS-Induced inflammatory Bowel Disease Models in Mice; assay: DSS-induced inflammatory bowel disease model in mice (Biological Example 5, 1.3% DSS); assay type: in vivo, C57BL/6 mice; conditions: 30 mg/Kg i.g. Q.D, 1.3% DSS days 0-5; for inhibition in vivo at 30 mg/kg: Mus musculus, po, read-out: Inhibitory Rate of Colonic Reduction
# Description: as §1
# (§3) The experimental method used in the present biological example is identical to those in Biological Example 3.
# One-way ANOVA analysis of mice body weights and colonic weights per length was performed by SPSS22. Statistical analyses between groups were performed.
# as §2
# [4] = tested on: DSS-Induced inflammatory Bowel Disease Models in Mice; assay: DSS-induced inflammatory bowel disease model in mice (Biological Example 4, 1.3% DSS); assay type: in vivo, C57BL/6 mice; conditions: 30 mg/Kg i.g. Q.D
# Description: as §1, §3, §2
SMILES,Daily Body Weight of Tested Female Mice (Mean ± SD) ([2]; Day 1) [g],Daily Body Weight of Tested Male Mice (Mean ± SD) ([2]; Day 1) [g],Daily Body Weight of Tested Female Mice (Mean ± SD) ([2]; Day 2) [g],Daily Body Weight of Tested Male Mice (Mean ± SD) ([2]; Day 2) [g],Daily Body Weight of Tested Female Mice (Mean ± SD) ([2]; Day 3) [g],Daily Body Weight of Tested Male Mice (Mean ± SD) ([2]; Day 3) [g],Daily Body Weight of Tested Female Mice (Mean ± SD) ([2]; Day 4) [g],Daily Body Weight of Tested Male Mice (Mean ± SD) ([2]; Day 4) [g],Daily Body Weight of Tested Female Mice (Mean ± SD) ([2]; Day 5) [g],Daily Body Weight of Tested Male Mice (Mean ± SD) ([2]; Day 5) [g],Daily Body Weight of Tested Female Mice (Mean ± SD) ([2]; Day 6) [g],Daily Body Weight of Tested Male Mice (Mean ± SD) ([2]; Day 6) [g],Daily Body Weight of Tested Female Mice (Mean ± SD) ([2]; Day 7) [g],Daily Body Weight of Tested Male Mice (Mean ± SD) ([2]; Day 7) [g],"Length (cm, Mean ± SD) of colon [3] [cm]",inhibition in vivo at 30 mg/kg [3] [%],also measured
"COCCN1C(=O)CCC(N2C(=O)c3cccc(F)c3C2=O)C1=O (centres unmarked) [Example 4, 4-fluoro-2-(1-(2-methoxyethyl)-2,6-dioxopiperidin-3-yl)isoindolin-1,3-dione]",18.4 ± 0.4,17.6 ± 0.2,21.8 ± 0.5,22.2 ± 0.3,23.2 ± 0.6,23.6 ± 0.6,23.5 ± 1.2,24.7 ± 0.6,24.7 ± 0.9,26.7 ± 0.4,24.2 ± 1.2,27.6 ± 0.8,24.0 ± 0.8,28.2 ± 0.1,–,–,body weights compared with model control group [1]: higher than that of the model control group; Average Length of Colon (Mean ± SD) [1]: 6.3 ± 0.3 cm; Inhibitory Rate of Colonic Reduction [1]: 54.5%; Body Weights of Experimental Mice (Mean ± SD) ([1]; Day 0): 17.4 ± 1.3 g; Body Weights of Experimental Mice (Mean ± SD) ([1]; Day 1): 17.6 ± 1.1 g; Body Weights of Experimental Mice (Mean ± SD) ([1]; Day 2): 18.0 ± 0.9 g; Body Weights of Experimental Mice (Mean ± SD) ([1]; Day 3): 17.8 ± 1.0 g; Body Weights of Experimental Mice (Mean ± SD) ([1]; Day 4): 17.9 ± 0.9 g; Body Weights of Experimental Mice (Mean ± SD) ([1]; Day 5): 18.1 ± 1.1 g; Body Weights of Experimental Mice (Mean ± SD) ([1]; Day 6): 17.7 ± 0.9 g; Body Weights of Experimental Mice (Mean ± SD) ([1]; Day 7): 18.1 ± 0.9 g; Body Weights of Experimental Mice (Mean ± SD) ([1]; Day 8): 17.8 ± 0.8 g; Body Weights of Experimental Mice (Mean ± SD) ([1]; Day 9): 17.6 ± 0.8 g; Body Weights of Experimental Mice (Mean ± SD) ([1]; Day 10): 17.0 ± 0.7 g; Body Weights of Experimental Mice (Mean ± SD) ([1]; Day 11): 16.7 ± 0.7 g; Body Weights of Experimental Mice (Mean ± SD) ([1]; Day 12): 17.0 ± 0.9 g
"COCCN1C(=O)CCC(N2C(=O)c3ccc(N)cc3C2=O)C1=O (centres unmarked) [Example 7, 5-amino-2-(1-(2-methoxyethyl)-2,6-dioxopiperidin-3-yl)isoindolin-1,3-dione]",–,–,–,–,–,–,–,–,–,–,–,–,–,–,–,–,body weights compared with model control group [1]: higher than that of the model control group; Average Length of Colon (Mean ± SD) [1]: 6.4 ± 0.4 cm; Inhibitory Rate of Colonic Reduction [1]: 63.6%; Body Weights of Experimental Mice (Mean ± SD) ([1]; Day 0): 17.4 ± 0.8 g; Body Weights of Experimental Mice (Mean ± SD) ([1]; Day 1): 17.5 ± 0.7 g; Body Weights of Experimental Mice (Mean ± SD) ([1]; Day 2): 18.2 ± 0.8 g; Body Weights of Experimental Mice (Mean ± SD) ([1]; Day 3): 17.8 ± 0.8 g; Body Weights of Experimental Mice (Mean ± SD) ([1]; Day 4): 17.7 ± 0.7 g; Body Weights of Experimental Mice (Mean ± SD) ([1]; Day 5): 17.9 ± 0.8 g; Body Weights of Experimental Mice (Mean ± SD) ([1]; Day 6): 17.8 ± 0.8 g; Body Weights of Experimental Mice (Mean ± SD) ([1]; Day 7): 17.9 ± 0.8 g; Body Weights of Experimental Mice (Mean ± SD) ([1]; Day 8): 17.4 ± 0.7 g; Body Weights of Experimental Mice (Mean ± SD) ([1]; Day 9): 17.4 ± 0.7 g; Body Weights of Experimental Mice (Mean ± SD) ([1]; Day 10): 16.8 ± 0.9 g; Body Weights of Experimental Mice (Mean ± SD) ([1]; Day 11): 16.8 ± 1.0 g; Body Weights of Experimental Mice (Mean ± SD) ([1]; Day 12): 17.3 ± 1.0 g
"C[S+]([O-])CCN1C(=O)CCC(N2C(=O)c3cccc(N)c3C2=O)C1=O (centres unmarked) [Example 12, 4-amino-2-(1-(2-methylsulfinylethyl)-2,6-dioxopiperidin-3-yl)isoindolin-1,3-dione]",18.7 ± 0.7,18.5 ± 0.2,21.8 ± 0.6,24.3 ± 0.6,22.6 ± 0.1,24.9 ± 0.1,22.6 ± 0.0,24.9 ± 0.1,23.7 ± 0.6,26.1 ± 0.7,25.3 ± 1.0,27.8 ± 0.7,25.7 ± 1.6,28.5 ± 0.7,7.0 ± 0.5,109,Summary of toxic response of tested animals in 7 Days ([2]; Female): Abnormality was not observed in 7 days of the test; Summary of toxic response of tested animals in 7 Days ([2]; Male): Abnormality was not observed in 7 days of the test
"COCCN1C(=O)CCC(C)(N2C(=O)c3cccc(N)c3C2=O)C1=O (centres unmarked) [Example 15, 4-amino-2-(1-(2-methoxyethyl)-3-methyl-2,6-dioxopiperidin-3-yl)isoindolin-1,3-dione]",–,–,–,–,–,–,–,–,–,–,–,–,–,–,6.6 ± 0.4,72.7,–
"CCOCCN1C(=O)CCC(N2C(=O)c3cccc(N)c3C2=O)C1=O (centres unmarked) [Example 19, 4-amino-2-(1-(2-ethoxyethyl)-2,6-dioxopiperidin-3-yl)isoindolin-1,3-dione]",18.0 ± 0.6,18.9 ± 1.2,20.7 ± 1.1,20.7 ± 1.1,21.3 ± 0.6,21.3 ± 0.6,22.8 ± 0.3,25.0 ± 2.0,23.2 ± 0.7,24.8 ± 1.9,23.3 ± 1.2,26.5 ± 1.9,23.0 ± 1.7,27.7 ± 2.2,–,–,Average Length of Colon (Mean ± SD) ([4]; 1.3% DSS days 0-5): 6.9 ± 0.4 cm; Inhibitory Rate of Colonic Reduction ([4]; 1.3% DSS days 0-5): 66.7%; Weights of Experimental Mice (Mean ± SD) ([4]; Day 0): 19.6 ± 0.7 g; Weights of Experimental Mice (Mean ± SD) ([4]; Day 1): 19.6 ± 0.8 g; Weights of Experimental Mice (Mean ± SD) ([4]; Day 2): 19.7 ± 0.7 g; Weights of Experimental Mice (Mean ± SD) ([4]; Day 3): 19.9 ± 0.7 g; Weights of Experimental Mice (Mean ± SD) ([4]; Day 4): 20.0 ± 0.7 g; Weights of Experimental Mice (Mean ± SD) ([4]; Day 5): 19.7 ± 0.5 g; Weights of Experimental Mice (Mean ± SD) ([4]; Day 6): 19.2 ± 0.7 g; Weights of Experimental Mice (Mean ± SD) ([4]; Day 7): 18.9 ± 0.8 g; Weights of Experimental Mice (Mean ± SD) ([4]; Day 8): 19.0 ± 1.0 g; Weights of Experimental Mice (Mean ± SD) ([4]; Day 9): 19.4 ± 0.8 g; Summary of toxic response of tested animals in 7 Days ([2]; Female): Severe motor dysfunction in three animals was observed 30; Summary of toxic response of tested animals in 7 Days ([2]; Male): Severe motor dysfunction in two animals was observed 30
"COCCN1C(=O)CCC(N2C(=O)c3ccc(F)cc3C2=O)C1=O (centres unmarked) [Example 21, 5-fluoro-2-(1-(2-methoxyethyl)-2,6-dioxopiperidin-3-yl)-isoindolin-1,3-dione]",–,–,–,–,–,–,–,–,–,–,–,–,–,–,6.9 ± 0.4,100,–
"COCCN1C(=O)CCC(N2C(=O)c3ccc(OC)c(N)c3C2=O)C1=O (centres unmarked) [Example 25, 4-amino-5-methoxy-2-(1-(2-methoxyethyl)-2,6-dioxopiperidin-3-yl)-isoindolin-1,3-dione]",–,–,–,–,–,–,–,–,–,–,–,–,–,–,6.7 ± 0.5,81.8,–
